Assay results published in ChEMBL document CHEMBL5385844, “Discovery of novel imidazole chemotypes as isoform-selective JNK3 inhibitors for the treatment of Alzheimer's disease” (Eur J Med Chem, 2023).
Active and inactive are the calls of the source. No cut-off for these calls is given here.

Tests used:
Cortical neurone [1] = assay: Neuroprotective activity against Amyloid beta (1 to 42)-induced toxicity in rat cortical neuron assessed as cell viability measured after 24 to 48 hrs by MTT assay; type: functional, cell-based; settings: time 24-48 hrs
[2] = biological target: Mitogen-activated protein kinase 10 (Homo sapiens, UniProt P53779); assay: Inhibition of human JNK3 incubated for 40 mins in presence of ATP and [gamma33P-ATP] by scintillation counting method; settings: read-out: IC50
[3] = Oral bioavailability in Sprague-Dawley rat at 15 mg/kg measured upto 24 hrs by UPLC analysis; type: ADME, organism-based; settings: in vivo
Cortical neurone [4] = assay: Neuroprotective activity against Amyloid beta (1 to 42)-induced toxicity in rat cortical neuron assessed as cell viability at 20 uM measured after 24 hrs by MTT assay; type: functional; settings: read-out: Activity
[5] = biological target: T1, Mitogen-activated protein kinase 8 (Homo sapiens, UniProt P45983); assay: Inhibition of human JNK1 incubated for 40 mins in presence of ATP and [gamma33P-ATP] by scintillation counting method
[6] = Cmax in Sprague-Dawley rat at 15 mg/kg, po measured upto 24 hrs by UPLC analysis; type: ADME, organism-based; set-up: dose 15 mg/kg, time < 24 hrs, route po; settings: in vivo
[7] = AUC in Sprague-Dawley rat at 1 mg/kg, iv measured upto 24 hrs by UPLC analysis; type: ADME, organism-based; set-up: dose 1 mg/kg, time < 24 hrs, route iv; settings: in vivo
Cortical neurone [8] = assay: Neuroprotective activity against Amyloid beta (1 to 42)-induced toxicity in rat cortical neuron assessed as cell viability at 20 uM measured after 48 hrs by MTT assay; type: functional; settings: read-out: Activity
[9] = Tmax in Sprague-Dawley rat at 15 mg/kg, po measured upto 24 hrs by UPLC analysis; type: ADME, organism-based; settings: in vivo
[10] = Half life in Sprague-Dawley rat at 1 mg/kg, iv measured upto 24 hrs by UPLC analysis; type: ADME, organism-based; settings: in vivo
[11] = Half life in Sprague-Dawley rat at 15 mg/kg, po measured upto 24 hrs by UPLC analysis; type: ADME, organism-based; settings: in vivo
[12] = biological target: T2, Mitogen-activated protein kinase 9 (Homo sapiens, UniProt P45984); assay: Inhibition of human JNK2 incubated for 40 mins in presence of ATP and [gamma33P-ATP] by scintillation counting method
[13] = AUC in Sprague-Dawley rat at 15 mg/kg, po measured upto 24 hrs by UPLC analysis; type: ADME, organism-based; set-up: dose 15 mg/kg, time < 24 hrs, route po; settings: in vivo
[14] = Apparent permeability across basolateral to apical side in human Caco-2 cells at 10 uM incubated for 1 hr by LC-MS/MS analysis; type: ADME, cell-based
[15] = Drug uptake in Sprague-Dawley rat brain at 30 mg/kg, po measured at Tmax; type: ADME, organism-based; settings: in vivo
[16] = Plasma concentration in Sprague-Dawley rat at 30 mg/kg, po measured at Tmax; type: ADME, organism-based
Mus musculus [17] = assay: Anti-alzheimer activity against APP/PS1 dE9 double transgenic mouse model assessed as time spent in platform quadrant at 30 mg/kg, po administered 3 times/week for 1 month and measured after 40 to 45 days of treatment by Morris water maze test (reference value: 15.94 +/- 2.08 sec); type: functional; settings: time 1 months, 730 h
[18] = Tmax in Sprague-Dawley rat at 3 mg/kg, po measured upto 24 hrs by UPLC analysis; type: ADME, organism-based; settings: in vivo
Mus musculus [19] = assay: Anti-alzheimer activity against APP/PS1 dE9 double transgenic mouse model assessed as spontaneous alteration at 10 mg/kg, po administered 3 times/week for 1 month and measured after 27 days of treatment by Y-maze test (reference value: 45.51 +/- 2.92%); type: functional; settings: time 1 months, 730 h
Mus musculus [20] = assay: Anti-alzheimer activity against homozygous 3 x Tg mouse model assessed as time spent in platform quadrant at 60 mg/kg, po administered daily for 2.2 months and measured after 68 to 73 days of treatment by Morris water maze test (reference value: 14.26 +/- 1.62 sec); type: functional; settings: 1606 h
[21] = Oral bioavailability in Sprague-Dawley rat at 3 mg/kg measured upto 24 hrs by UPLC analysis; type: ADME, organism-based; settings: in vivo
Mus musculus [22] = assay: Anti-alzheimer activity against homozygous 3 x Tg mouse model assessed as escape latency time at 30 mg/kg, po administered daily for 2.2 months and measured after 60 days of treatment by Passive avoidance test (reference value: 40.6 +/- 6 sec); type: functional; settings: 1606 h
[23] = Cmax in Sprague-Dawley rat at 3 mg/kg, po measured upto 24 hrs by UPLC analysis; type: ADME, organism-based; set-up: dose 3 mg/kg, time < 24 hrs, route po; settings: in vivo
[24] = Brain to Plasma ratio in Sprague-Dawley rat at 30 mg/kg, po measured at Tmax; type: ADME, organism-based; settings: read-out: BPR
Mus musculus [25] = assay: Anti-alzheimer activity against APP/PS1 dE9 double transgenic mouse model assessed as time spent in platform quadrant at 10 mg/kg, po administered 3 times/week for 1 month and measured after 40 to 45 days of treatment by Morris water maze test (reference value: 15.94 +/- 2.08 sec); type: functional; settings: time 1 months, 730 h
[26] = Toxicity in APP/PS1 mouse assessed as weight change at 60 mg/kg, po treated for 2 months; type: organism-based; settings: in vivo, 1460 h
Mus musculus [27] = assay: Anti-alzheimer activity against APP/PS1 dE9 double transgenic mouse model assessed as escape latency time at 10 mg/kg, po administered 3 times/week for 1 month and measured after 27 days of treatment by Passive avoidance test (reference value: 24.8 +/- 4.1 sec); type: functional; settings: time 1 months, 730 h
[28] = Half life in Sprague-Dawley rat at 3 mg/kg, po measured upto 24 hrs by UPLC analysis; type: ADME, organism-based; settings: in vivo
[29] = Permeability of the compound by PAMPA-BBB assay; type: ADME; settings: read-out: permeability
Mus musculus [30] = assay: Anti-alzheimer activity against APP/PS1 dE9 double transgenic mouse model assessed as spontaneous alteration at 30 mg/kg, po administered 3 times/week for 1 month and measured after 27 days of treatment by Y-maze test (reference value: 45.51 +/- 2.92%); type: functional; settings: time 1 months, 730 h
[31] = Toxicity in APP/PS1 mouse assessed as abnormal symptoms at 30 mg/kg, po treated for 2 months; type: organism-based; settings: in vivo, 1460 h
[32] = Toxicity in homozygous 3 x Tg mouse model assessed as visual inspection at 60 mg/kg, po daily for 2.2 months; type: organism-based; settings: in vivo, 1606 h
[33] = Toxicity in APP/PS1 mouse assessed as weight change at 30 mg/kg, po treated for 2 months; type: organism-based; settings: in vivo, 1460 h
[34] = Apparent permeability across apical to basolateral side in human Caco-2 cells at 10 uM incubated for 1 hr by LC-MS/MS analysis; type: ADME, cell-based
Mus musculus [35] = assay: Anti-alzheimer activity against homozygous 3 x Tg mouse model assessed as spontaneous alteration at 60 mg/kg, po administered daily for 2.2 months and measured after 57 days of treatment by Y-maze test (reference value: 45.05 +/- 3.61%); type: functional; settings: 1606 h
[36] = Toxicity in APP/PS1 mouse assessed as abnormal symptoms at 60 mg/kg, po treated for 2 months; type: organism-based; settings: in vivo, 1460 h
Mus musculus [37] = assay: Anti-alzheimer activity against APP/PS1 dE9 double transgenic mouse model assessed as escape latency time at 30 mg/kg, po administered 3 times/week for 1 month and measured after 27 days of treatment by Passive avoidance test (reference value: 24.8 +/- 4.1 sec); type: functional; settings: time 1 months, 730 h
[38] = Efflux ratio of apparent permeability basolateral to apical side over apical to basolateral side in human Caco-2 cells at 10 uM incubated for 1 hr by LC-MS/MS analysis; type: ADME, cell-based
[39] = biological target: T1, Mitogen-activated protein kinase 8; assay: Inhibition of JNK1 (unknown origin) assessed as incorporation of 33P-ATP
[40] = biological target: T2, Mitogen-activated protein kinase 9; assay: Inhibition of JNK2 (unknown origin) assessed as incorporation of 33P-ATP

T2 sequence (P45984 whole entry): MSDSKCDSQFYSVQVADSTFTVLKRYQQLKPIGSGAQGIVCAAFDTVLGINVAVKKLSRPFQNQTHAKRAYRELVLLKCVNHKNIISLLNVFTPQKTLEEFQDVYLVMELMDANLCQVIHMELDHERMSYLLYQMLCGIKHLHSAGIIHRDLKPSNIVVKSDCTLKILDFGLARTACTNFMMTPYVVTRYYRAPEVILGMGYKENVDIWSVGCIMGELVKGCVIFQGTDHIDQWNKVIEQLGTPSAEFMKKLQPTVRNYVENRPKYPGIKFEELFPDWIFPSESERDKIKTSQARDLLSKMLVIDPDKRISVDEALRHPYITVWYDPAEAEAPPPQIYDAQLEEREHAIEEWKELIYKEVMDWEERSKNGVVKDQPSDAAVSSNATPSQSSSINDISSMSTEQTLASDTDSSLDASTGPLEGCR
Mitogen-activated protein kinase 10, sequence (P53779 whole entry): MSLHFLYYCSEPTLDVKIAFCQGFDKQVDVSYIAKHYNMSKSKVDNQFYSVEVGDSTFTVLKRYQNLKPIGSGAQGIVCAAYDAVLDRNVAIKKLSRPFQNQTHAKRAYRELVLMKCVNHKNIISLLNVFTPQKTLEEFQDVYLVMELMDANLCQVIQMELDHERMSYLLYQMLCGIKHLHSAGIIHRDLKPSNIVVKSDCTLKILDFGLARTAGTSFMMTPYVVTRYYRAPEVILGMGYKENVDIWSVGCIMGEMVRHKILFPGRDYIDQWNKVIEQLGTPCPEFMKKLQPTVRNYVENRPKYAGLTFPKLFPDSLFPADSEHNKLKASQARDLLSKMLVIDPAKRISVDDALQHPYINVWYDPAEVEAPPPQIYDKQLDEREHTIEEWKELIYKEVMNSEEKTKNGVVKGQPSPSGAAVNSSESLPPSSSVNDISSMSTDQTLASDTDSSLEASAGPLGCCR
T1 sequence (P45983 whole entry): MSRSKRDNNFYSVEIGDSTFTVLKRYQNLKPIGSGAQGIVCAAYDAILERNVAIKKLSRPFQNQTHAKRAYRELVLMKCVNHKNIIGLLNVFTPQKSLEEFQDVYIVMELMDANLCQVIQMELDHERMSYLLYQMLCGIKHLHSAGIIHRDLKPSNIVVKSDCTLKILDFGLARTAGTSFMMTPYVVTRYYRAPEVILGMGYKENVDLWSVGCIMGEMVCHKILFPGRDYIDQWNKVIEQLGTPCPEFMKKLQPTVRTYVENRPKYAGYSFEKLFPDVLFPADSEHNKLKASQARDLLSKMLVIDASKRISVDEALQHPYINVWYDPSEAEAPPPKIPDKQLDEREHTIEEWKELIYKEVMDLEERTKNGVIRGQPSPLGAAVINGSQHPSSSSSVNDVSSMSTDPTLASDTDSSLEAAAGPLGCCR

Cc1ccc(-c2ncn(-c3ccc(Nc4nccc(-c5cccc(N6CCOCC6)c5)n4)cc3)n2)cn1
Activity (Cortical neurone [1]): inactive

C[C@@H](O)CNc1nccc(-n2c(CC#N)cnc2-c2ccc3ccccc3n2)n1
IC50 [2]: > 10000 nM

N#CCc1cnc(-c2ccc3ccccc3c2)n1-c1ccnc(NC2CCOCC2)n1
IC50 [2]: 321 nM

N#CCc1cnc(-c2ccc(Cl)c(Cl)c2)n1-c1ccnc(N[C@H]2CCCN(C(=O)C3CC3)C2)n1
bioavailability [3]: 6.2%
viability at 20 µM (Cortical neurone [4]): 72.4%
IC50 [5]: 312 nM
IC50 [2]: 2 nM
Cmax [6]: 406 ng/mL
AUC at 24 h [7]: 902 ng·h/mL
viability at 20 µM (Cortical neurone [8]): 47%
Tmax [9]: 40.2 min
half-life [10]: 12.6 min
half-life [11]: 105 min
IC50 [12]: 44.2 nM
AUC at 24 h [13]: 839 ng·h/mL

N#CCc1cnc(-c2ccc3c(c2)OCCO3)n1-c1ccnc(NC2CCOCC2)n1
IC50 [2]: > 10000 nM

N#CCc1cnc(-c2ccc3ccccc3n2)n1-c1ccnc(N[C@H]2CCCNC2)n1
IC50 [2]: > 10000 nM

N#CCc1cnc(-c2ccc(Cl)c(Cl)c2)n1-c1ccnc(N[C@H]2CCCNC2)n1
IC50 [2]: 13300 nM

N#CCc1cnc(-c2ccc(Cl)c(Cl)c2)n1-c1ccnc(N[C@H]2CCCN(C(=O)NC3CC3)C2)n1
IC50 [5]: 513 nM
IC50 [2]: 5.3 nM
IC50 [12]: 55.8 nM

N#CCc1cnc(-c2ccc3c(c2)OCO3)n1-c1ccnc(NC2CCOCC2)n1
IC50 [2]: 8560 nM

CC(C)(C)C(=O)N1CCC[C@H](Nc2nccc(-n3c(CC#N)cnc3-c3ccc(Cl)c(Cl)c3)n2)C1
IC50 [5]: 444 nM
IC50 [2]: 8 nM
IC50 [12]: 81 nM

N#CCc1cnc(-c2ccc(F)c(C(F)(F)F)c2)n1-c1ccnc(NC2CCOCC2)n1
IC50 [2]: 421 nM

N#CCc1cnc(-c2ccc3c(c2)CCO3)n1-c1ccnc(N[C@H]2CCCN(C(=O)C3CC3)C2)n1
Papp B→A at 1 h, 10 µM [14]: 31.3 ×10⁻⁶ cm/s
Drug uptake [15]: 357 ng/g
Cmax [16]: 5910 ng/mL
Time (Mus musculus [17]): 22.5 s
Tmax [18]: 40.2 min
Activity (Mus musculus [19]): 53.15%
Time (Mus musculus [20]): 21.91 s
viability at 20 µM (Cortical neurone [4]): 73.3%
bioavailability [21]: 86.2%
IC50 [5]: 148 nM
Time (Mus musculus [22]): 71.1 s
Cmax [23]: 1240 ng/mL
Kp [24]: 0.06
IC50 [2]: 4.1 nM
Time (Mus musculus [25]): 21.55 s
Activity [26]: Non-Toxic
AUC at 24 h [7]: 1090 ng·h/mL
viability at 20 µM (Cortical neurone [8]): 46.3%
Time (Mus musculus [27]): 34.7 s
half-life [28]: 68.4 min
half-life [10]: 21.6 min
Papp [29]: 8.91 ×10⁻⁶ cm/s
IC50 [12]: 44 nM
Activity (Mus musculus [30]): 54.99%
Activity [31]: Non-Toxic
Activity [32]: Non-Toxic
Activity [33]: Non-Toxic
Papp A→B at 1 h, 10 µM [34]: 11 ×10⁻⁶ cm/s
Activity (Mus musculus [35]): 57.14%
Activity [36]: Non-Toxic
Time (Mus musculus [37]): 40.1 s
efflux ratio at 1 h, 10 µM [38]: 2.86

C[C@@H](O)CNc1nccc(-n2c(CC#N)cnc2-c2ccc3ccccc3c2)n1
IC50 [2]: 4960 nM

N#CCc1cnc(C2=CC3OCOC3C=C2)n1-c1ccnc(N[C@H]2CCCN(C(=O)C3CC3)C2)n1 (stereo partly drawn)
IC50 [2]: 55 nM

N#CCc1cnc(-c2ccc3ccccc3c2)n1-c1ccnc(NC2CCCCC2)n1
IC50 [2]: 142 nM

N#CCc1cnc(-c2ccc3c(c2)OCO3)n1-c1ccnc(NC2CCCCC2)n1
IC50 [2]: 814 nM

N#CCc1cnc(-c2ccc(Cl)c(Cl)c2)n1-c1ccnc(NC(=O)NC2CCCN(C(=O)C3CC3)C2)n1 (stereo not drawn)
IC50 [5]: > 10000 nM
IC50 [2]: > 10000 nM
IC50 [12]: > 10000 nM

N#CCc1cnc(C2=CC3OCCOC3C=C2)n1-c1ccnc(N[C@H]2CCCN(C(=O)C3CC3)C2)n1 (stereo partly drawn)
IC50 [2]: 1520 nM

C[C@@H](O)CNc1nccc(-n2c(CC#N)cnc2-c2ccc(Cl)c(Cl)c2)n1
IC50 [2]: 6760 nM

O=C(C1CC1)N1CCC[C@H](Nc2nccc(-n3c(-c4ccc5c(c4)OCCO5)nc4cc(O)c(O)cc43)n2)C1
IC50 [39]: > 10000 nM
IC50 [2]: 10 nM
IC50 [40]: ~1000 nM

N#CCc1cnc(-c2ccc3ccccc3c2)n1-c1ccnc(N[C@H]2CCCCN(C(=O)C3CC3)C2)n1
IC50 [5]: 962 nM
IC50 [2]: 24.1 nM
IC50 [12]: 241 nM
